Experiment: refractive index (other wavelength) (dimensionless); xn = mol fraction of the nth substance listed
Conditions: 94.64 kPa, Liquid, Standard Abbe refractometry

CC(=O)O [acetic acid] + O
refractive index
Conditions	Wavelength=404.7 nm	Wavelength=435.8 nm	Wavelength=486.1 nm	Wavelength=546.1 nm	Wavelength=587.6 nm	Wavelength=632.8 nm	Wavelength=644 nm	Wavelength=706.5 nm
293.15 K, x1 = 0.0322	1.35074	1.34808	1.34498	1.34229	1.34084	1.3395	1.33919	1.33766
293.15 K, x1 = 0.0697	1.35808	1.35532	1.35218	1.3494	1.34797	1.34664	1.34631	1.34473
293.15 K, x1 = 0.114	1.36535	1.36252	1.35924	1.35643	1.35495	1.35355	1.35322	1.35158
293.15 K, x1 = 0.167	1.37162	1.36869	1.36533	1.36247	1.36095	1.35953	1.35919	1.35756
293.15 K, x1 = 0.231	1.37678	1.3738	1.37034	1.36744	1.36589	1.36444	1.36411	1.36247
293.15 K, x1 = 0.31	1.38181	1.37874	1.37522	1.37227	1.37068	1.36921	1.36888	1.36724
293.15 K, x1 = 0.412	1.38536	1.38226	1.37869	1.37571	1.37412	1.37264	1.3723	1.37065
293.15 K, x1 = 0.545	1.38847	1.3853	1.38169	1.37868	1.37709	1.37561	1.37526	1.37359
293.15 K, x1 = 0.629	1.38867	1.3855	1.38192	1.37889	1.3773	1.37583	1.37548	1.37381
293.15 K, x1 = 0.729	1.38865	1.38547	1.38189	1.37886	1.37727	1.37581	1.37547	1.37382
293.15 K, x1 = 0.85	1.38695	1.38381	1.38021	1.37723	1.37565	1.37419	1.37386	1.37224
293.15 K, x1 = 1	1.38345	1.38034	1.37681	1.37386	1.3723	1.37087	1.37055	1.36896
298.15 K, x1 = 0.0322	1.34997	1.34733	1.34424	1.34156	1.34012	1.33879	1.33848	1.33695
298.15 K, x1 = 0.0697	1.35708	1.35435	1.35121	1.34845	1.347	1.34567	1.34535	1.34377
298.15 K, x1 = 0.114	1.36413	1.36131	1.35805	1.35525	1.35378	1.35239	1.35206	1.35044
298.15 K, x1 = 0.167	1.37026	1.36733	1.36401	1.36114	1.35963	1.35823	1.3579	1.35625
298.15 K, x1 = 0.231	1.37523	1.37226	1.36885	1.36595	1.36441	1.36298	1.36265	1.36102
298.15 K, x1 = 0.31	1.38012	1.37707	1.37358	1.37063	1.36906	1.36762	1.36728	1.36564
298.15 K, x1 = 0.412	1.38357	1.38048	1.37695	1.37398	1.37239	1.37092	1.37059	1.36894
298.15 K, x1 = 0.545	1.38656	1.38342	1.37983	1.37683	1.37525	1.37378	1.37344	1.37178
298.15 K, x1 = 0.629	1.38681	1.38367	1.38008	1.37709	1.37551	1.37404	1.3737	1.37205
298.15 K, x1 = 0.729	1.38668	1.38352	1.37994	1.37695	1.37536	1.3739	1.37357	1.37193
298.15 K, x1 = 0.85	1.38488	1.38174	1.37819	1.37522	1.37365	1.37221	1.37188	1.37027
298.15 K, x1 = 1	1.38126	1.37816	1.37466	1.37174	1.37018	1.36876	1.36844	1.36686
303.15 K, x1 = 0.0322	1.34916	1.34654	1.34343	1.34077	1.33932	1.338	1.3377	1.3362
303.15 K, x1 = 0.0697	1.35605	1.35332	1.35017	1.34743	1.34598	1.34464	1.34432	1.34275
303.15 K, x1 = 0.114	1.36289	1.36008	1.35684	1.35405	1.35256	1.35117	1.35085	1.34926
303.15 K, x1 = 0.167	1.36886	1.36596	1.36261	1.35979	1.35827	1.35686	1.35653	1.35492
303.15 K, x1 = 0.231	1.37369	1.37074	1.36734	1.36446	1.36293	1.36151	1.36118	1.35956
303.15 K, x1 = 0.31	1.37842	1.37539	1.37192	1.36899	1.36742	1.36598	1.36565	1.36402
303.15 K, x1 = 0.412	1.38176	1.37869	1.37516	1.37223	1.37064	1.36917	1.36884	1.36722
303.15 K, x1 = 0.545	1.38463	1.3815	1.37794	1.37497	1.37337	1.3719	1.37157	1.36995
303.15 K, x1 = 0.629	1.38481	1.38167	1.37813	1.37513	1.37355	1.3721	1.37176	1.37013
303.15 K, x1 = 0.729	1.38467	1.38153	1.37797	1.375	1.37341	1.37196	1.37163	1.37002
303.15 K, x1 = 0.85	1.38283	1.37972	1.37618	1.37323	1.37166	1.37023	1.3699	1.36831
303.15 K, x1 = 1	1.37917	1.37611	1.37261	1.36968	1.36815	1.36675	1.36643	1.36485
